This passage reports EC50 results from patent US5571833A, “Tryptamine analogues, their synthesis and their use as 5-HT1 -like or 5-HT2 receptor agonists” (SmithKline Beecham plc, priority 1991, dated 1996).

Molecules are shown by their SMILES. Where a name gives a salt, the structure may show the parent alone.

For test [1], the target named is T1, 5-HT1-like receptor (dog saphenous vein) (Canis lupus familiaris, UniProt P79250).
T1 construct: Helicoids of dog saphenous vein were set up; from tissue; host or cells: dog saphenous vein (helicoids)
T1 sequence (P79250 whole entry): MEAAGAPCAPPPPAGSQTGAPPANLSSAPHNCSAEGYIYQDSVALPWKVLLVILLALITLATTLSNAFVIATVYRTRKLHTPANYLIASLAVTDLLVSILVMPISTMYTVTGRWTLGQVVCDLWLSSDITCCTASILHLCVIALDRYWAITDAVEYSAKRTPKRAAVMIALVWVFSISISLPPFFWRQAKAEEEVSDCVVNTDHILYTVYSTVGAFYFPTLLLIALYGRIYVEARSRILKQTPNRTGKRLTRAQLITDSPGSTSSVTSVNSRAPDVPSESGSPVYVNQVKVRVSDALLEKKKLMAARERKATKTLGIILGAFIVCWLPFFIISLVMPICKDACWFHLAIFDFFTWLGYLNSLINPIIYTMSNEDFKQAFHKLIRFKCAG
The test can be described thus: 5-HT1-Like Receptor Screen, Dog Saphenous Vein (contraction of helicoids). The class given is cell-based. The procedure:
5-HT1 -Like Receptor Screen
Helicoids of dog saphenous vein were set up at 37° C. in modified Krebs solution at a resting force of 10 mN. The solution also contained 1 μmol/l each of ketanserin, prazosin, atropine and mepyramine, 6 μmol/l cocaine and 200 μmol/l ascorbate. Nearly […] contractions were measured with force transducers on a polygraph. The tissues were exposed twice to 5-hydroxytryptamine (5-HT) 2 μmol/l followed by washes. A cumulative concentration-effect curve to the test compound was determined, followed by a curve to 5-HT in the presence of the highest used concentration of test compound. Contractions caused by the test compound were compared with those caused by 5-HT. The intrinsic activity of the test compound was calculated as the ratio of the maximum test compound-induced effect over the effect caused by 2 μmol/l 5-HT. The EC50 of the test compound was estimated from the corresponding effect curve. When appropriate equilibrium dissociation constants Kp were estimated by the method of Marano & Kaumann (1976, J. Pharmacol. Exp. Ther. 198, 518-525).

Test [2] concerns the target T2, rabbit basilar artery (5-HT1-like receptor) (Oryctolagus cuniculus, UniProt P49144).
T2 construct: from tissue; host or cells: rabbit basilar artery, endothelium removed (ring segments)
The experiment in a line: Rabbit Basilar Artery (isometric tension of isolated ring segments). The test is classed as cell-based. The procedure:
Experiments were performed in intracranial arteries from rabbit isolated basilar artery in a similar method to one described previously (Parsons and Whalley, 1989. Eur J Pharmacol 174, 189-196.).
In brief, rabbits were killed by overdose with anaesthetic (sodium pentobarbitone). The whole brain was quickly removed and immersed in ice cold modified Kreb's solution and the basilar artery removed with the aid of a dissecting microscope. The Krebs solution was of the following composition (mM) Na^+ (120); K^+ (5); Ca^2+ (2.25); Mg^2+ (0.5); Cl^- (98.5); SO4^2^- (1); EDTA (0.04), equilibrated with 95% O2 /5% CO2. The endothelium was removed by a gentle rubbing of the lumen with a fine metal wire. Arteries were then cut into ring segments (ca 4-5 mm wide) and set up for recording of isometric tension in 50 ml tissue baths in modified Krebs solution with the additional supplement of (mM); […] (20); fumarate (10); pyruvate (5); L-glutamate (5) and glucose (10). The arteries were then placed under a resting force of 3-4 mN maintained at 37° C. and the solution bubbled with 95% O2 /5% CO2.
After tests for initial reactivity with 90 mM KCl depolarising solution and for lack of acetylcholine-induced relaxation of 5-HT ([…]) precontraction, cumulative concentration-effect curves ([…]) to 5-HT were constructed in the presence of ascorbate […], cocaine […], indomethacin […], ketanserin […] and prazosin […].
Following a 45-60 min wash period, cumulative concentration-effect curves to the test compounds or 5-HT (as a time match control) were constructed in the presence of ascorbate, indomethacin, cocaine, ketanserin and prazosin.

T2 sequence (P49144 whole entry): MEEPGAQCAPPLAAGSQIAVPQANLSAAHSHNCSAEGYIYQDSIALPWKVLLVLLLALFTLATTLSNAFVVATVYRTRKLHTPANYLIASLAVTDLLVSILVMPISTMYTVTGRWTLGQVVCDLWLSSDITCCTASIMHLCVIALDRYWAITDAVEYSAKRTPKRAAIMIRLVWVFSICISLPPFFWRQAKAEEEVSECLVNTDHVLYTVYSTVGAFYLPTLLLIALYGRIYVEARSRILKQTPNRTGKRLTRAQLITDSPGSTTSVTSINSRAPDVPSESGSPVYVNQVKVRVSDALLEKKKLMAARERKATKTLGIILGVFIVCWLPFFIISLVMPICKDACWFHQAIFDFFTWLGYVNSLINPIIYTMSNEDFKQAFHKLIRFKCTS

By EC50 is commonly meant the concentration at which the effect is half-maximal. Low values mean higher potency in that assay, high ones lower potency in that assay. For `CCCOc1ccc2[nH]cc(CCN(C)C)c2c1Cl` [3(i), 3-(2-Dimethylaminoethyl)-4-chloro-5-n-propyloxy-indole fumarate], the EC50 in test [1] fell in the range of 200 to 15000 nM; in test [2] it was 170 to 1100 nM. With `COc1ccc2[nH]cc(CCN(C)C)c2c1Cl` [6(i), 3-(2-Dimethylaminoethyl)-4-chloro-5-methoxyindole fumarate], the EC50 in test [1] was 200 to 15000 nM; in test [2] it was 170 to 1100 nM. On to `NCCc1c[nH]c2ccc(OCc3ccccc3)c(Cl)c12` [Example 1, 3-(2-amino-ethyl)-4-chloro-5-benzyloxyindole hydrochloride], for which, in test [1], the EC50 lay in the range of 200 to 15000 nM. For `NCCc1c[nH]c2ccc(O)c(Cl)c12` [Example 2, 3-(2-Aminoethyl)-4-chloro-5-hydroxyindole fumarate], the figures for the EC50 in test [1] and in test [2] were 200 to 15000 nM and 170 to 1100 nM, respectively. For the compound `CCCOc1ccc2[nH]cc(CCN)c2c1Cl` [Example 3(ii), 3-(2-aminoethyl)-4-chloro-5-n-propyloxyindole fumarate], the EC50 in test [1] was in the range of 200 to 15000 nM. Take `CN(C)CCc1c[nH]c2ccc(OCc3ccccc3)c(Cl)c12` [Example 4, 3-(2-Dimethylaminoethyl)-4-chloro-5-benzyloxyindole hydrochloride]: in test [2], the EC50 lay within 170 to 1100 nM. On to `CN(C)CCc1c[nH]c2ccc(O)c(Cl)c12` [Example 5, 3-(2-Dimethylaminoethyl)-4-chloro-5-hydroxyindole oxalate], for which the figures for the EC50 in test [1] and in test [2] were 200 to 15000 nM and 170 to 1100 nM, respectively. As to `COc1ccc2[nH]cc(CCN)c2c1Cl` [Example 6(ii), 3-(2-aminoethyl)-4-chloro-5-methoxyindole fumarate], the EC50 in test [1] fell in the range of 200 to 15000 nM.

Regarding `COc1ccc2[nH]cc(CCN(C)C)c2c1Br` [Example 7, 3-(2-Dimethylaminoethyl)-4-bromo-5-methoxyindole hemifumarate], the EC50 in test [1] was 200 to 15000 nM.

In test [1], `CCCNCCc1c[nH]c2ccc(OC)c(Cl)c12` [Example 8, 3-(2-n-Propylaminoethyl)-4-chloro-5-methoxyindole fumarate] had an EC50 of 200 to 15000 nM. The same measure, in the same setting: under `CNCCc1c[nH]c2ccc(OC)c(Cl)c12` [Example 9, 3-(2-Methylaminoethyl)-4-chloro-5-methoxyindole hemifumarate] stands 200 to 15000 nM. In the case of `CCCCOc1ccc2[nH]cc(CCN(C)C)c2c1Cl` [Example 11, 3-(2-Dimethylaminoethyl)-4-chloro-5-n-butyloxyindole hemifumarate], the values for the EC50 in test [1] and in test [2] were 200 to 15000 nM and 170 to 1100 nM, respectively. `CCCOc1ccc2[nH]cc(CCNC)c2c1Cl` [Example 13, 3-(2-Methylaminoethyl)-4-chloro-5-n-propoxyindole hemifumarate] yielded an EC50 in test [1] of 200 to 15000 nM. For the compound `CCCOc1ccc2[nH]cc(CCN(C)C)c2c1Br` [Example 14, 3-(2-Dimethylaminoethyl)-4-bromo-5-n-propoxyindole hemifumarate], the EC50 in test [1] lay within 200 to 15000 nM; in test [2], 170 to 1100 nM. `CC(C)Oc1ccc2[nH]cc(CCN)c2c1Cl` [Example 15, 3-(2-Aminoethyl)-4-chloro-5-iso-propoxyindole fumarate]: the EC50 in test [1] is 200 to 15000 nM. On the same count and under the same terms, under `CCCOc1ccc2[nH]cc(CCN)c2c1Br` [Example 16, 3-(2-Aminoethyl)-4-bromo-5-n-propoxyindole oxalate] stands 200 to 15000 nM. The same measure, in the same setting: under `CC(C)Oc1ccc2[nH]cc(CCN(C)C)c2c1Cl` [Example 17, 3-(2-Dimethylaminoethyl)-4-chloro-5-isopropoxyindole oxalate] stands 200 to 15000 nM.

As for `CCCOc1ccc2[nH]cc(CCN)c2c1C` [Example 18b, 3-(2-aminoethyl)-4-methyl-5-n-propyloxyindole oxalate], in test [2], the EC50 was 170 to 1100 nM.

In turn, `CCCOc1ccc2[nH]cc(CCN(C)CC)c2c1Cl` [Example 19, 3-(2-(N-methyl-N-ethylamino)ethyl)-4-chloro-5-n-propyloxyindole oxalate] came in with an EC50 in test [2] of 170 to 1100 nM. In test [2], `CCCOc1ccc2[nH]cc(CCN(C)C)c2c1I` [Example 20, 3-(2-(Dimethylamino)ethyl)-4-iodo-5-n-propyloxy indole oxalate] showed an EC50 of 170 to 1100 nM.

`CN(C)CCc1c[nH]c2ccc(OCC(C)(C)C)c(Cl)c12` [Example 22, 3-(2-(Dimethylamino)ethyl)-4-chloro-5-neopentyloxy indole oxalate] showed a half-maximal effective concentration (EC50) in test [2] of 170 to 1100 nM.
